Assay results as given in the NIST ThermoML archive (doi:10.1021/je8003723).

Assays:
[1] = xn = mol fraction of the nth substance listed; conditions: 308.15 K, 101 kPa, Liquid; for viscosity: Capillary tube (Ostwald / Ubbelohde) method; for mass density: Pycnometric method; for speed of sound: Sing-around technique in a fixed-path interferometer
[2] = 308.15 K, 101.3 kPa, Liquid; for viscosity: Capillary tube (Ostwald / Ubbelohde) method; for mass density: Pycnometric method; for speed of sound: Sing-around technique in a fixed-path interferometer

CCC(=O)CC [pentan-3-one] + N#CCc1ccccc1
[1], x2 = 0
Conditions	mass density [kg/m3]	speed of sound [m/s]	viscosity [mPa·s]
–	800	1185	0.371

CCC(=O)CC [pentan-3-one]
[2]
Conditions	mass density [kg/m3]	speed of sound [m/s]	viscosity [mPa·s]
–	800	1185	0.371

CCCC(C)=O [pentan-2-one]
[2]
Conditions	mass density [kg/m3]	speed of sound [m/s]	viscosity [mPa·s]
–	790.8	1179	0.394

N#CCc1ccccc1 [benzeneacetonitrile] + CC(=O)CC(C)C
[1]
Conditions	mass density [kg/m3]	speed of sound [m/s]	viscosity [mPa·s]
x1 = 0.0271	792.5	1166	0.475
x1 = 0.16	823.3	1212	0.573
x1 = 0.2926	852.2	1261	0.679
x1 = 0.3931	874.6	1298	0.775
x1 = 0.5217	902.8	1340	0.91
x1 = 0.6436	928.9	1382	1.049
x1 = 0.7407	949.8	1414	1.164
x1 = 0.8599	976	1459	1.338
x1 = 0.9758	998.1	1498	1.523
x1 = 1	1003.2	1518	1.585

N#CCc1ccccc1 [benzeneacetonitrile] + CCC(C)=O
[1]
Conditions	mass density [kg/m3]	speed of sound [m/s]	viscosity [mPa·s]
x1 = 0.0205	796.1	1167	0.334
x1 = 0.1218	825.9	1208	0.412
x1 = 0.2283	854	1265	0.497
x1 = 0.3188	876.8	1308	0.583
x1 = 0.4403	905.5	1356	0.72
x1 = 0.5655	931.3	1397	0.868
x1 = 0.6706	950.7	1421	1.015
x1 = 0.8086	974.1	1454	1.228
x1 = 0.9657	998.1	1497	1.498
x1 = 1	1003.2	1518	1.585

CC(=O)CC(C)C [4-methylpentan-2-one] + N#CCc1ccccc1
[1], x2 = 0
Conditions	mass density [kg/m3]	speed of sound [m/s]	viscosity [mPa·s]
–	786.8	1150	0.455

N#CCc1ccccc1 [benzeneacetonitrile] + CCC(=O)CC
[1]
Conditions	mass density [kg/m3]	speed of sound [m/s]	viscosity [mPa·s]
x1 = 0.0235	806	1199	0.388
x1 = 0.1407	835.4	1237	0.474
x1 = 0.2569	861.5	1278	0.567
x1 = 0.358	883.3	1314	0.665
x1 = 0.4803	909	1354	0.79
x1 = 0.6048	933.7	1397	0.936
x1 = 0.6943	951.2	1421	1.064
x1 = 0.8378	976.7	1471	1.281
x1 = 0.9722	998.9	1496	1.528
x1 = 1	1003.2	1518	1.585

CCC(C)=O [butanone]
[2]
Conditions	mass density [kg/m3]	speed of sound [m/s]	viscosity [mPa·s]
–	789.2	1157	0.316

CCCC(C)=O [pentan-2-one] + N#CCc1ccccc1
[1], x2 = 0
Conditions	mass density [kg/m3]	speed of sound [m/s]	viscosity [mPa·s]
–	790.8	1179	0.394

N#CCc1ccccc1 [benzeneacetonitrile]
[2]
Conditions	mass density [kg/m3]	speed of sound [m/s]	viscosity [mPa·s]
–	1003.2	1518	1.585

CCC(C)=O [butanone] + N#CCc1ccccc1
[1], x2 = 0
Conditions	mass density [kg/m3]	speed of sound [m/s]	viscosity [mPa·s]
–	789.2	1157	0.316

N#CCc1ccccc1 [benzeneacetonitrile] + CCCC(C)=O
[1]
Conditions	mass density [kg/m3]	speed of sound [m/s]	viscosity [mPa·s]
x1 = 0.0221	797	1189	0.41
x1 = 0.1416	826.8	1228	0.495
x1 = 0.2622	856	1271	0.6
x1 = 0.3564	877.5	1313	0.685
x1 = 0.4811	904.2	1363	0.819
x1 = 0.6125	931.5	1394	0.976
x1 = 0.7133	950.9	1418	1.1
x1 = 0.8389	974.8	1456	1.29
x1 = 0.9736	998.6	1499	1.509
x1 = 1	1003.2	1518	1.585

CC(=O)CC(C)C [4-methylpentan-2-one]
[2]
Conditions	mass density [kg/m3]	speed of sound [m/s]	viscosity [mPa·s]
–	786.8	1150	0.455
